Patent US9145392B2, “Imidazole amines as modulators of kinase activity” (Merck Patent GmbH, priority 2011, dated 2015)

Assays:
[1] = molecular target: His-AKT (Full Length) (Homo sapiens (Human), UniProt P31749); assay: AKT enzyme assay; assay type: biochemical; conditions: read-out: IC50 AKT
Method: A TTP Mosquito liquid handling instrument is used to place 125n1 of the appropriate concentration of inhibitor in 100% DMSO (for a dose response curve calculation) into each well of a 384-well plate.
The reaction is incubated for 90 min at 25 C, and then stopped by the addition of 70 μl of Stop buffer (100 mM HEPES pH 7.5, 0.015% Brij-35, 10 mM EDTA (Sigma, E7889)).
The plate is read on a Caliper LC 3000 in an Off-Chip mobility shift assay format, using the following parameters for a 12-sipper chip: screening pressure −2.3 psi, upstream voltage −500, and downstream voltage −3000. These conditions cause unphosphorylated substrate and phosphorylated product peptide to resolve as separate peaks allowing direct measurement of percentage of conversion of substrate to product. The percent conversion can be plotted against concentration of inhibitor to produce a sigmoidal dose response curve, from which an IC50 can be calculated.

[2] = molecular target: P70S6K (T412E mutant) (Homo sapiens (Human), UniProt P23443, T412E); assay: P70S6K enzyme assay; assay type: biochemical; conditions: read-out: IC50 p70S6K
Method: P70S6K inhibitor compounds are diluted and plated in 96 well plates. […] The reaction is incubated for 90 min at 25° C., before the addition of 10 mM EDTA to stop the reaction. The proportion of substrate and product (phosphorylated) peptide is analysed on a Caliper Life Sciences Lab Chip 3000, using a pressure of −1.4 psi, and upstream and downstream voltages of −3000 and −700 respectively. Product peaks are resolved before substrate peaks on the resulting chromatograms.

P70S6K (T412E mutant), sequence (P23443 whole entry T412E): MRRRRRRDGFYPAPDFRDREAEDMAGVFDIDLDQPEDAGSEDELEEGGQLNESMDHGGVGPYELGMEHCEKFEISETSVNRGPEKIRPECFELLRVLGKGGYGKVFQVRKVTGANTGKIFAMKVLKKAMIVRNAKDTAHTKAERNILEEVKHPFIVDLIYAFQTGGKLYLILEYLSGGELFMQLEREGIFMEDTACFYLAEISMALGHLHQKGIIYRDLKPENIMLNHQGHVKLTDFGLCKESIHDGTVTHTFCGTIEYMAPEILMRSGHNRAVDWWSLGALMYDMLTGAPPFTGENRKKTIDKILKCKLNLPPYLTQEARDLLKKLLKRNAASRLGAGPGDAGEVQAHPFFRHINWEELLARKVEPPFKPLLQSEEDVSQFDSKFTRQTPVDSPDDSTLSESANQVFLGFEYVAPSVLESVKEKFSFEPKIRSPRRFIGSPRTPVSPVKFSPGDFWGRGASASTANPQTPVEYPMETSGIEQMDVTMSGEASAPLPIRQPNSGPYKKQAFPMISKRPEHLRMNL
His-AKT (Full Length), sequence (P31749 whole entry): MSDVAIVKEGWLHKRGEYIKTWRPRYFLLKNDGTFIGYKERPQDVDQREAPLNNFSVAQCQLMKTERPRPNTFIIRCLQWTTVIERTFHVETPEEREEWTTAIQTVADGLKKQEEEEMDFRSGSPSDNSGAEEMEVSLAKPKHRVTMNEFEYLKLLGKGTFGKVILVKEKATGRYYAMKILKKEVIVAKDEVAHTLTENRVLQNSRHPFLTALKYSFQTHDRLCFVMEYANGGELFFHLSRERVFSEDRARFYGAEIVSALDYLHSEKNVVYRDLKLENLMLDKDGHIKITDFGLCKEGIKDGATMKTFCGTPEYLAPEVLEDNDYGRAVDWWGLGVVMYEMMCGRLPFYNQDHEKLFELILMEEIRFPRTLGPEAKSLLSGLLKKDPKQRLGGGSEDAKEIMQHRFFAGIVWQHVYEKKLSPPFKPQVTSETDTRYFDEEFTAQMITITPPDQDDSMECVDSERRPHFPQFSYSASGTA

Row | IC50 [1] [nM] | IC50 [2] [nM] | Structure (SMILES)
1 | 66 | 2.1 | Cn1cc(-c2ccc(F)c(C(F)(F)F)c2)nc1C1CCN(c2ncnc(N)c2Br)CC1 [Compound 1, 5-Bromo-6-{4-[4-(4-fluoro-3-trifluoromethyl-phenyl)-1-methyl-1H-imidazol-2-yl]-piperidin-1-yl}-pyrimidin-4-ylamine]
2 | 1700 | 6.2 | Nc1ncnc(N2CCC(c3nc(-c4cccc(C(F)(F)F)c4)c[nH]3)CC2)c1Br [Compound 3, 5-Bromo-6-{4-[4-(3-trifluoromethyl-phenyl)-1H-imidazol-2-yl]-piperidin-1-yl}-pyrimidin-4-ylamine]
3 | 6100 | 31.9 | FC(F)(F)c1cccc(-c2c[nH]c(C3CCN(c4ncncc4Br)CC3)n2)c1 [Compound 4, 5-Bromo-4-{4-[4-(3-trifluoromethyl-phenyl)-1H-imidazol-2-yl]-piperidin-1-yl}-pyrimidine]
4 | 160 | 0.6 | Cn1cc(-c2ccc(F)c(C(F)(F)F)c2)nc1C1CCN(c2ncnc(N)c2C=O)CC1 [Compound 6, 4-Amino-6-{4-[4-(4-fluoro-3-trifluoromethyl-phenyl)-1-methyl-1H-imidazol-2-yl]-piperidin-1-yl}-pyrimidine-5-carbaldehyde]
5 | 110 | 1.5 | Cn1cc(-c2ccc(F)c(C(F)(F)F)c2)nc1C1CCN(c2ncnc(N)c2C#N)CC1 [Compound 7, 4-Amino-6-{4-[4-(4-fluoro-3-trifluoromethyl-phenyl)-1-methyl-1H-imidazol-2-yl]-piperidin-1-yl}-pyrimidine-5-carbonitrile]
6 | 9.1 | 1.8 | CN(C)CCn1cc(-c2ccc(F)c(C(F)(F)F)c2)nc1C1CCN(c2ncnc(N)c2C#N)CC1 [Compound 8, 4-Amino-6-{4-[1-(2-dimethylamino-ethyl)-4-(4-fluoro-3-trifluoromethyl-phenyl)-1H-imidazol-2-yl]-piperidin-1-yl}-pyrimidine-5-carbonitrile]
7 | 440 | 2.1 | COc1c(N)ncnc1N1CCC(c2nc(-c3ccc(F)c(C(F)(F)F)c3)cn2C)CC1 [Compound 9, 6-{4-[4-(4-Fluoro-3-trifluoromethyl-phenyl)-1-methyl-1H-imidazol-2-yl]-piperidin-1-yl}-5-methoxy-pyrimidin-4-ylamine]
8 | 2200 | 3.4 | Cn1cc(-c2ccc(F)c(C(F)(F)F)c2)nc1C1CCN(c2ncnc(N)c2-c2ccc(F)cc2)CC1 [Compound 10, 5-(4-Fluoro-phenyl)-6-{4-[4-(4-fluoro-3-trifluoromethyl-phenyl)-1-methyl-1H-imidazol-2-yl]-piperidin-1-yl}-pyrimidin-4-ylamine]
9 | 520 | 4.7 | COc1ccc(-c2c(N)ncnc2N2CCC(c3nc(-c4ccc(F)c(C(F)(F)F)c4)cn3C)CC2)cc1 [Compound 11, 6-{4-[4-(4-Fluoro-3-trifluoromethyl-phenyl)-1-methyl-1H-imidazol-2-yl]-piperidin-1-yl}-5-(4-methoxy-phenyl)-pyrimidin-4-ylamine]
10 | 8300 | 7.3 | Cc1ccc(-c2c(N)ncnc2N2CCC(c3nc(-c4ccc(F)c(C(F)(F)F)c4)cn3C)CC2)cc1 [Compound 13, 6-{4-[4-(4-Fluoro-3-trifluoromethyl-phenyl)-1-methyl-1H-imidazol-2-yl]-piperidin-1-yl}-5-p-tolyl-pyrimidin-4-ylamine]
11 | 250 | 1.9 | Cn1cc(-c2ccc(F)c(C(F)(F)F)c2)nc1C1CCN(c2ncnc(N)c2-c2ccc(CO)cc2)CC1 [Compound 14, [4-(4-Amino-6-{4-[4-(4-fluoro-3-trifluoromethyl-phenyl)-1-methyl-1H-imidazol-2-yl]-piperidin-1-yl}-pyrimidin-5-yl)-phenyl]-methanol]
12 | 150 | 11 | Cn1cc(-c2ccc(F)c(C(F)(F)F)c2)nc1C1CCN(c2ncnc(N)c2-c2cccc(C#N)c2)CC1 [Compound 15, 3-(4-Amino-6-{4-[4-(4-fluoro-3-trifluoromethyl-phenyl)-1-methyl-1H-imidazol-2-yl]-piperidin-1-yl}-pyrimidin-5-yl)-benzonitrile]
13 | 2.7 | 2.7 | Cn1cc(-c2ccc(F)c(C(F)(F)F)c2)nc1C1CCN(c2ncnc(N)c2-c2ccc(C#N)cc2)CC1 [Compound 17, 4-(4-Amino-6-{4-[4-(4-fluoro-3-trifluoromethyl-phenyl)-1-methyl-1H-imidazol-2-yl]-piperidin-1-yl}-pyrimidin-5-yl)-benzonitrile]
14 | 1700 | 2.2 | Cc1ccc(-c2c(N)ncnc2N2CCC(c3nc(-c4ccc(F)c(C(F)(F)F)c4)cn3C)CC2)cn1 [Compound 19, 6-{4-[4-(4-Fluoro-3-trifluoromethyl-phenyl)-1-methyl-1H-imidazol-2-yl]-piperidin-1-yl}-5-(6-methyl-pyridin-3-yl)-pyrimidin-4-ylamine]
15 | 2700 | 7.1 | Cc1ccc(-c2c(N)ncnc2N2CCC(c3nc(-c4ccc(F)c(C(F)(F)F)c4)cn3C)CC2)s1 [Compound 20, 6-{4-[4-(4-Fluoro-3-trifluoromethyl-phenyl)-1-methyl-1H-imidazol-2-yl]-piperidin-1-yl}-5-(5-methyl-thiophen-2-yl)-pyrimidin-4-ylamine]
16 | 1100 | 2.2 | Cn1cc(-c2ccc(F)c(C(F)(F)F)c2)nc1C1CCN(c2ncnc(N)c2CO)CC1 [Compound 36, (4-Amino-6-{4-[4-(4-fluoro-3-trifluoromethyl-phenyl)-1-methyl-1H-imidazol-2-yl]-piperidin-1-yl}-pyrimidin-5-yl)-methanol]
17 | 1600 | 2.6 | Cn1cc(-c2ccc(F)c(C(F)(F)F)c2)nc1C1CCN(c2ncnc(N)c2C(N)=O)CC1 [Compound 37, 4-Amino-6-{4-[4-(4-fluoro-3-trifluoromethyl-phenyl)-1-methyl-1H-imidazol-2-yl]-piperidin-1-yl}-pyrimidine-5-carboxamide]
18 | 84 | 3.5 | CN(C)CCn1cc(-c2ccc(F)c(C(F)(F)F)c2)nc1C1CCN(c2ncnc(N)c2C(N)=O)CC1 [Compound 38, 4-Amino-6-{4-[1-(2-dimethylamino-ethyl)-4-(4-fluoro-3-trifluoromethyl-phenyl)-1H-imidazol-2-yl]-piperidin-1-yl}-pyrimidine-5-carboxylic acid amide]
19 | 860 | 1.4 | Cn1cc(-c2ccc(F)c(C(F)(F)F)c2)nc1C1CCN(c2ncnc(N)c2-c2ccncc2)CC1 [Compound 39, 6-{4-[4-(4-Fluoro-3-trifluoromethyl-phenyl)-1-methyl-1H-imidazol-2-yl]-piperidin-1-yl}-5-pyridin-4-yl-pyrimidin-4-ylamine]
20 | 2700 | 2.3 | Cn1cc(-c2ccc(F)c(C(F)(F)F)c2)nc1C1CCN(c2ncnc(N)c2-c2ccc(N)nc2)CC1 [Compound 40, 5-(6-Amino-pyridin-3-yl)-6-{4-[4-(4-fluoro-3-trifluoromethyl-phenyl)-1-methyl-1H-imidazol-2-yl]-piperidin-1-yl}-pyrimidin-4-ylamine]
21 | 1400 | 3 | Cn1cc(-c2ccc(F)c(C(F)(F)F)c2)nc1C1CCN(c2ncncc2Br)CC1 [Compound 41, 5-Bromo-4-{4-[4-(4-fluoro-3-trifluoromethyl-phenyl)-1-methyl-1H-imidazol-2-yl]-piperidin-1-yl}-pyrimidine]
22 | 600 | 1.7 | Nc1ncnc(N2CCC(c3nc(-c4ccc(F)c(C(F)(F)F)c4)c[nH]3)CC2)c1Br [Compound 43, 5-Bromo-6-{4-[4-(4-fluoro-3-trifluoromethyl-phenyl)-1H-imidazol-2-yl]-piperidin-1-yl}-pyrimidin-4-ylamine]
23 | 9500 | 2.4 | Nc1ncnc(N2CCC(c3nc(-c4ccc(F)c(C(F)(F)F)c4)c[nH]3)CC2)c1-c1ccc(F)cc1 [Compound 44, 5-(4-Fluoro-phenyl)-6-{4-[4-(4-fluoro-3-trifluoromethyl-phenyl)-1H-imidazol-2-yl]-piperidin-1-yl}-pyrimidin-4-ylamine]
24 | 440 | 2.7 | Cn1cc(-c2ccc(F)c(C(F)(F)F)c2)nc1C1CCN(c2ncnc(N)c2-c2cncnc2)CC1 [Compound 48, 6-{4-[4-(4-Fluoro-3-trifluoromethyl-phenyl)-1-methyl-1H-imidazol-2-yl]-piperidin-1-yl}-[5,5′]bipyrimidinyl-4-ylamine]
25 | 880 | 2.3 | Cn1cc(-c2ccc(F)c(C(F)(F)F)c2)nc1C1CCN(c2ncnc(N)c2-c2cccnc2)CC1 [Compound 53, 6-{4-[4-(4-Fluoro-3-trifluoromethyl-phenyl)-1-methyl-1H-imidazol-2-yl]-piperidin-1-yl}-5-pyridin-3-yl-pyrimidin-4-ylamine]
26 | 740 | 2.5 | COC/C=C/c1c(N)ncnc1N1CCC(c2nc(-c3ccc(F)c(C(F)(F)F)c3)cn2C)CC1 [Compound 54, 6-{4-[4-(4-Fluoro-3-trifluoromethyl-phenyl)-1-methyl-1H-imidazol-2-yl]-piperidin-1-yl}-5-((E)-3-methoxy-propenyl)-pyrimidin-4-ylamine]
